Test results published in article PMC9799096, “ASK120067 potently suppresses B-cell or T-cell malignancies in vitro and in vivo by inhibiting BTK and ITK” (Frontiers in Pharmacology, 2022).

How the values were obtained:
[1] = target: Bruton’s tyrosine kinase (BTK) (Homo sapiens, UniProt Q06187); experiment: ELISA kinase activity assay with purchased BTK protein (MilliporeSigma #[…]-552); format: biochemical
[2] = target: T1, interleukin-2-inducible T cell kinase (ITK) (Homo sapiens, UniProt Q08881); experiment: ELISA kinase activity assay with purchased ITK protein (MilliporeSigma #[…]-660); format: biochemical
T1 sequence (Q08881 1-620): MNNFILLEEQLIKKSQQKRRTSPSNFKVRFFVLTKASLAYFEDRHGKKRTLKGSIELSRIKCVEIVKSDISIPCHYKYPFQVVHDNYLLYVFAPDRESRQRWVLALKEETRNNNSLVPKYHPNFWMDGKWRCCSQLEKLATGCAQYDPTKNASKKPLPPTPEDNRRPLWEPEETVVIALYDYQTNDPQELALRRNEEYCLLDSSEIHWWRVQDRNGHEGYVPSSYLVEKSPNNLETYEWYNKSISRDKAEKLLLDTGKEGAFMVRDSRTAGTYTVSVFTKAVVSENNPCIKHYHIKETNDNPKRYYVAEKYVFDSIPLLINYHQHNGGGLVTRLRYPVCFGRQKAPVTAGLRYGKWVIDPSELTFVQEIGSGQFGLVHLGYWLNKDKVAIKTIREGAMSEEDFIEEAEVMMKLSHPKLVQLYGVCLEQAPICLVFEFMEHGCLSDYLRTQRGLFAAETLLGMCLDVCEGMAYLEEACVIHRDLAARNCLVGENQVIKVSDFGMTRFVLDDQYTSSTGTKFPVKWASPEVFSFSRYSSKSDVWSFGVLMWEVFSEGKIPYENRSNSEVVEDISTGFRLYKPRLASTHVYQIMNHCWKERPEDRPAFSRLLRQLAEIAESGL

Chain of Bruton’s tyrosine kinase (BTK) (Q06187 2-659): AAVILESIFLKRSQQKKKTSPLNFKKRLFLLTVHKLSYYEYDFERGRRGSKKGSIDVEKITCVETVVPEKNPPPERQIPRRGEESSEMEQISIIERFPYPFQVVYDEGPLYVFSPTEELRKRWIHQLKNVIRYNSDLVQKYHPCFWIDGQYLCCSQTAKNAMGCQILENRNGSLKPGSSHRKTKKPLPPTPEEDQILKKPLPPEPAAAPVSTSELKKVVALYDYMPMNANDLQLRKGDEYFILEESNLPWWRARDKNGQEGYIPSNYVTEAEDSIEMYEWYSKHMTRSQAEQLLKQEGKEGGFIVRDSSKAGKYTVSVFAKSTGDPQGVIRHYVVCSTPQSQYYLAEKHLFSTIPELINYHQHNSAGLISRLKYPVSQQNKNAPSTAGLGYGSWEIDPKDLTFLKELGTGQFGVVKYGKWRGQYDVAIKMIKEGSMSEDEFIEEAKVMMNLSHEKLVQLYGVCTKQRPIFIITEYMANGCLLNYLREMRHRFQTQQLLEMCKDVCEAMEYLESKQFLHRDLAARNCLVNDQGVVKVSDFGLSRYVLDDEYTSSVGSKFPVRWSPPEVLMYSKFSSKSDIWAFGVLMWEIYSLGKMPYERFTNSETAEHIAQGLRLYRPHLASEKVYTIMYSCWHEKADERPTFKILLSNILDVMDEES

C=CC(=O)Nc1cc(Nc2ncc(Cl)c(Nc3ccc4ccccc4c3)n2)c(OC)cc1N(C)CCN(C)C [ASK120067]
IC50 [1]: 2.1 nM | IC50 [2]: 0.4 nM
